# Several values for one entry are separate records, joined by “and”; a condition that tells them apart may be missing. Equal values may be shown once.
# Tested on: NOD mice with recent-onset diabetes
# Assay: GLP-1 and gastrin therapy of recent-onset diabetes in NOD mice, fasting blood glucose
# Type: in vivo, mouse
# Conditions: NOD female mice, GLP-1 100 μg/kg/day, gastrin 3 μg/kg/day, i.p. twice a day
# Description: In this example, the effect of treatment by a combination of GLP-1 and gastrin was examined in NOD mice with recent onset diabetes, to determine whether administration of both GLP-1 and gastrin would prevent severe hyperglycemia, ketoacidosis and death as well as increase pancreatic insulin content in NOD mice with recent-onset diabetes. The I.N.T.™ composition used was gastrin as synthetic human gastrin I having 17 amino acid residues with a Leu residue at amino acid position 15. The GLP-1 used was GLP-1 which is the biologically active fragment of human/mouse GLP-1 (having residues at positions 7-36 compared to the precursor from which the fragment is processed; obtained from Bachem H6795).
# Non-obese diabetic (NOD) female mice, ages 12-14 weeks, were monitored for development of onset of diabetes (fasting blood glucose >8.0 to 15 mmol/l), and within 48 hours after onset of symptoms, two groups of mice were each treated as follows: one group was treated with vehicle only; and the other group was administered 100 μg/kg/day of GLP-1, each treatment administered via the intraperitoneal route twice daily.
# Therapy was administered for 14 days. Animals were monitored weekly for fasting blood glucose (FBG) levels. FBG levels were measured at about 12 hours after food had been withdrawn, and 24 hours after the last peptide or vehicle injection. Upon cessation of therapy, all mice were monitored for FBG levels for the next 4 weeks (weeks 2-6) so as to determine whether prevention of hyperglycemia persisted after termination of therapeutic treatment.
# The protocol includes sampling of these mice for data again at 6 weeks, and blood collected for assay of FBG and plasma C-peptide, and the mice are sacrificed for pancreatic insulin determinations and scoring of islet inflammation (insulitis). From the outset of treatment, mice received neither insulin-replacement treatment nor immunosuppression. The following parameters are assessed: survival rates, pancreatic insulin levels, presence of islet inflammation and fasting blood glucose levels.
substance,measurement,setting,value
GLP-1: biologically active fragment of human/mouse GLP-1 (having residues at positions 7-36); obtained from Bachem H6795,FBG (mM) at day: 0,day 0 (start of treatment),12.3 ± 0.9 mM
same,FBG (mM) at day: 7,day 7 of treatment,14.1 ± 1.8 mM
same,FBG (mM) at day: 14,day 14 (end of treatment),15.3 ± 2.6 mM
same,FBG (mM) at day: 18,day 18 (treatment stopped at 14 days),15.8 mM and 15.8 ± 4.2 mM
